Results: a compilation of properties of binary mixtures (doi:10.1007/s10953-006-9073-6)

Test: xn = mol fraction of the nth substance listed
Conditions: 298.15 K, 101 kPa

| speed of sound (x2 = 0.2213) | speed of sound (x2 = 0.308) | speed of sound (x2 = 0.3852) | speed of sound (x2 = 0.5017) | speed of sound (x2 = 0.5976) | speed of sound (x2 = 0.6987) | speed of sound (x2 = 0.8012) | speed of sound (x2 = 0.8967) | speed of sound (x2 = 0.9504) | speed of sound (x2 = 0.1874) | speed of sound (x2 = 0.4815) | speed of sound (x2 = 0.6209) | speed of sound (x2 = 0.7217) | speed of sound (x2 = 0.8982) | speed of sound (x2 = 0.9373) | SMILES |
| --- | --- | --- | --- | --- | --- | --- | --- | --- | --- | --- | --- | --- | --- | --- | --- |
| 1838.3 m/s | 1828.2 m/s | 1831.3 m/s | 1845 m/s | 1859.6 m/s | 1872.8 m/s | 1881.5 m/s | 1853.7 m/s | 1754.7 m/s | – | – | – | – | – | – | CCCC[n+]1ccn(C)c1.[Cl-] + O |
| – | – | – | – | – | – | – | – | – | 1744.8 m/s | 1598.2 m/s | 1515 m/s | 1443 m/s | 1279.1 m/s | 1232.5 m/s | CCCC[n+]1ccn(C)c1.[Cl-] + CCO |
